{
  "source": "paper PMC7689490",
  "about": "“Designed CXCR4 mimic acts as a soluble chemokine receptor that blocks atherogenic inflammation by agonist-specific targeting” (Nature Communications, 2020)",
  "key": {"MonoMac-6 / HAoEC [1]": {"system": "MonoMac-6 / HAoEC", "experiment": "MIF-induced MonoMac-6 adhesion to HAoECs under flow", "type": "cell-based, human", "experimental": "HAoECs were seeded at a density of 60,000 cells per channel in collagen-coated Ibidi µ-Slides I 0.8 and incubated for 20–24 h until monolayers were confluent. […] Prior to the flow assay, MgSO4 and CaCl2 were added to MonoMac6 suspensions at a final concentration of 1 mM. Flow channels containing HAoEC monolayers were then perfused with MonoMac6 cells at a shear rate of 1.5 dyn cm^−2 for 10 min at 37 °C using the Ibidi Pump System/Perfusion Set. For quantification of adherent monocytes, images from four positions per channel were acquired using a Leica DMi8 inverted microscope (20 x objective) and quantified with ImageJ."}, "MonoMac-6 / HAoEC [2]": {"system": "MonoMac-6 / HAoEC", "experiment": "MIF-induced static adhesion of MonoMac-6 monocytes to HAoECs", "type": "cell-based, human", "experimental": "HAoECs were seeded at a density of 30,000 cells/well in 6 well µ-Ibidi Perfusion slides VI 0.4 (Ibidi GmbH). […] After perfusion of the chambers with fresh medium, MonoMac6 cells (1 × 10^6 cells mL^−1) in PromoCell medium were added for 30 min. Non-adhering cells were flushed away by gentle perfusion using a 30 mL syringe. To quantify adherent monocytes, seven individual images (technical triplicates each) from each treatment were acquired using a Leica DMi8 inverted microscope with a ×10 objective and cells quantified using ImageJ."}, "[3]": {"system": "primary human monocyte-derived macrophages", "experiment": "MIF-mediated DiI-LDL uptake / foam cell formation", "type": "cell-based", "details": "80 nM MIF", "experimental": "After washing with imaging solution (MEM without phenol red containing 30 mM HEPES, 0.5 g/L NaHCO3, pH 7.4, and 0.2% BSA), cells were exposed to 50 µg mL^−1 1,1′-dioctadecyl-3,3,3′3′-tetramethylindocarbocyanine-labeled oxidized LDL (DiI-oxLDL) or DiI-labeled native LDL (DiI-LDL) for 30 min at 4 °C, followed by incubation at 37 °C for 20 min. Cells were washed with ice-cold imaging solution (pH 3.5), fixed, and counter-stained with Hoechst 33258."}, "pAMPK/AMPK in HCM": {"system": "pAMPK/AMPK in HCM", "experiment": "MIF/CD74-triggered AMPK signaling in human cardiomyocytes (HCM)", "type": "cell-based", "experimental": "HCMs (2 × 10^5 per well) were plated in 12-well plates and maintained for 2 days with cultured medium containing 5% FCS. Before stimulation, medium was replaced by fresh myocyte basal medium containing 0.05% FCS and HCMs rested for 16 h. Surface CD74 expression on HCMs was verified by flow cytometry (FITC-conjugated anti-human CD74 (1:100 dilution), FITC-IgG2 (isotype control) (BD Pharmingen), 1 h/4 °C in the dark, BD FACSVerse™ flow cytometer, FlowJo software). […] After treatment, cells were lysed and subjected to SDS-PAGE (10%)/Western blotting using NuPAGE® lithium dodecyl sulfate (LDS)/dithiothreitol (DTT) lysis buffer-containing PhosSTOP^TM reagent (Roche Applied Science). […] Anti-rabbit horse-radish peroxidase (HRP)-conjugated antibody (1:10000, GE Healthcare, Freiburg, Germany) was used for development and signals quantitated by chemiluminescence using an Odyssey® Fc imager. Unprocessed scans of the Western blots are supplied in the Source Data file."}, "[4]": {"details": "MIF + msR4M-L1, individual replicates, n = 4"}},
  "note": "Where “and” joins values, the source holds several entries; their conditions need not be identical. Identical values can stand only once. Entries after “also recorded” stand apart in the source; their conditions may differ.",
  "data": [
    {"smiles": "CC[C@H](C)[C@H](NC(=O)[C@H](Cc1ccc(O)cc1)NC(=O)[C@H](CCCNC(=N)N)NC(=O)[C@H](CC(=O)O)NC(=O)CCCCCCCCCCCNC(=O)CCCCCNC(=O)[C@H](CCCCN)NC(=O)[C@H](CS)NC(=O)[C@H](CC(C)C)NC(=O)[C@H](Cc1ccccc1)NC(=O)[C@H](CC(N)=O)NC(=O)CNC(=O)[C@H](Cc1ccccc1)NC(=O)[C@H](Cc1ccc(O)cc1)NC(=O)[C@H](Cc1c[nH]c2ccccc12)NC(=O)[C@H](CC(N)=O)NC(=O)[C@H](C)NC(=O)[C@@H](NC(=O)[C@H](C)NC(=O)[C@@H](N)CC(=O)O)C(C)C)C(=O)N[C@@H](CS)C(=O)N[C@@H](CC(=O)O)C(=O)N[C@@H](CCCNC(=N)N)C(=O)N[C@@H](Cc1ccccc1)C(=O)N[C@@H](Cc1ccc(O)cc1)C(=O)N1CCC[C@H]1C(=O)N[C@@H](CC(N)=O)C(=O)N[C@@H](CC(=O)O)C(=O)N[C@@H](CC(C)C)C(=O)N[C@@H](Cc1c[nH]c2ccccc12)C(=O)N[C@H](C(N)=O)C(C)C", "note": "[msR4M-L1, CXCR4-ECL1[97–110]-6-Ahx-12-Ado-ECL2[182–196]]", "values": [
      {"measurement": "effect on MIF-induced monocyte adhesion under flow", "setting": "MonoMac-6 / HAoEC [1]; 1.5 dyn/cm^2, 16 nM MIF, 320 nM msR4M-L1", "value": "inhibited monocyte adhesion"},
      {"measurement": "Fig. 5c, MIF-induced monocyte adhesion", "setting": "MonoMac-6 / HAoEC [1]; [4]", "value": "206 and 207 and 188 and 291"},
      {"measurement": "Fig. 5b, MIF-induced monocyte adhesion", "setting": "MonoMac-6 / HAoEC [1]; TNF + MIF + msR4M-L1, individual replicates, n = 3", "value": "105.71 and 99.43 and 83.71"},
      {"measurement": "effect on MIF-induced static monocyte adhesion, TNF-α-prestimulated HAoECs", "setting": "MonoMac-6 / HAoEC [2]; 40 pM TNF-α pre-treatment, 320 nM msR4M-L1", "value": "abrogated the effect of MIF"},
      {"measurement": "effect on MIF-induced static monocyte adhesion, resting HAoECs", "setting": "MonoMac-6 / HAoEC [2]; 16 nM MIF, 320 nM msR4M-L1, 16 h", "value": "blocked the pro-adhesion effect of MIF"},
      {"measurement": "Fig. 5a, MIF-induced monocyte adhesion", "setting": "MonoMac-6 / HAoEC [2]; [4]", "value": "56.3 and 56.9 and 61.4 and 42.3"},
      {"measurement": "inhibition of MIF-mediated DiI-LDL uptake", "setting": "[3]", "value": "dose-dependently inhibited; also recorded: slightly better than that of ISO-1, but lower than that of NIH/IIID.9"},
      {"measurement": "effect on MIF-upregulated pAMPK levels", "setting": "pAMPK/AMPK in HCM", "value": "not attenuated"}
    ]}
  ]
}
